This is an account of results in article PMC11436757, “BRCA2 stabilises RAD51 and DMC1 nucleoprotein filaments through a conserved interaction mode” (Nature Communications, 2024).

The test system of one test is DMC1. Particulars: ref [21],[27],[32]; cited from earlier work. From the text:
The PhePP-binding site of DMC1 is formed by two loops, corresponding to amino-acids 147-153 and 178-183, respectively. The first loop consists of amino-acids 147-GAGGYPG-153 in DMC1 and 148-IDRGGGE-154 in RAD51 (herein referred to as PhePP-binding loop A; Fig. 1d), and is one of the most divergent regions between DMC1 and RAD51 (Supplementary Fig. 4). The second loop consists of amino-acids 178-NVDHDA-183 in DMC1 and 179-GLSGSD-184 in RAD51 (herein referred to as PhePP-binding loop B; Fig. 1e), in which residues V179 (DMC1) and L180 (RAD51) substantially contribute to the PhePP-binding pocket. ...

A further test has as its system DMC1 ΔN F85E. The experiment in a line: Amylose pull-down of His-DMC1 ΔN F85E (monomeric) with MBP-BRCA2 fusions. It counts as binding, human. Particulars: lysates mixed; MBP-BRCA2 fusion; 20 mM Tris pH 8.0, 500 mM KCl, 2 mM DTT. How it is done: (§1) For affinity experiments involving DMC1 ΔN V179E and F85E, MBP-fusions of BRCA2 fragments (Ex14, amino-acids 2387-2420, Ex14-Tr, amino acids 2401-2414, BRC4, amino acids 1519-1551) were cloned into pMAT11 vectors and DMC1 ΔN mutants (V179E or F85E) were cloned into pHAT4 vectors. Lysates of bacterial cultures expressing His6-DMC1 mutants or MBP-BRCA2 constructs were mixed, and complexes were purified through amylose affinity chromatography in 20 mM Tris pH 8.0, 500 mM KCl, 2 mM DTT and eluted using 30 mM D-maltose.

For the next test, the system named is DMC1 ΔN V179E. As to the kind of experiment: Amylose pull-down of His-DMC1 ΔN V179E with MBP-BRCA2 fusions. It counts as binding, human. The note with it: lysates mixed; MBP-BRCA2 fusion; 20 mM Tris pH 8.0, 500 mM KCl, 2 mM DTT. How it is done: as §1
A further test concerns DMC1-ssDNA filaments. As to the kind of experiment: EMSA, stimulation of DMC1-ssDNA filament formation (TAE pH 7.5). The note with it: TAE pH 7.5. It counts as biochemical, human. The source says: What is the function of the BRCA2 Ex14-DMC1 interaction? We used electrophoretic mobility shift assays (EMSAs) to determine the impact of BRCA2-binding on DMC1 nucleoprotein filaments. We used two different conditions for nucleoprotein filament assembly. Firstly, a TAE (tris, acetate, EDTA; pH 7.5) buffer that was previously used for RAD51-ssDNA filaments, in which DMC1-ssDNA filaments were partially formed at the canonical ratio of three nucleotides to one protomer (Fig. 3a). Secondly, a TEA (triethanolamine; pH 7.5) + KCl buffer based on previous DMC1 studies[36]–[38], in which DMC1-ssDNA filament formation was more complete at the canonical ratio (Fig. 3b). […] This was noticeable using Ex14 in equimolar amounts (11 μM), and became substantial at a 5-fold stoichiometric excess (55 μM) (Fig. 3b). As the KD of the DMC1-Ex14 interaction is approximately 30 μM (Fig. 2a), the requirement for a stoichiometric excess is likely due to binding being favoured at Ex14 concentrations above the KD.
(§2) To form nucleoprotein filaments, DMC1 and RAD51 was incubated with fluorescent 100-base ssDNA (5’-FAM- […]-3’) at the concentrations indicated in the figures for 30 minutes at 4 °C in reaction buffer. For DMC1, reaction buffer is 25 mM TEA (triethanolamine) pH 7.5, 1 mM ATP, 2 mM MgCl2, 0.1 mg/ml BSA, 2 mM DTT, 200 mM KCl. For RAD51, reaction buffer is 50 mM TEA (triethanolamine), 2 mM ATP, 0.5 mM MgCl2, 2 mM DTT. For assays requiring incomplete nucleoprotein filament assembly, the reaction buffer consisted of 50 mM TAE (tris, acetate, EDTA) pH 7.5, 2 mM ATP, 2 mM MgCl2, 2 mM DTT. In nucleoprotein formation stimulation assays or supershift experiments, BRCA2Ex14 or BRCA2Ex14-AAA were added for a further 30 min at 4 °C. […] Glycerol was added at a final concentration of 3%, and samples were analysed by electrophoresis on a 1% (w/v) (for DMC1) or 0.66% (w/v) (for RAD51) agarose gel in 0.5x TAE pH 8.0 at 20–40 V for ~4 h at 4 °C. DNA was detected by FAM using a Typhoon^TM FLA 9500 (GE Healthcare), with 473 nm laser at excitation wavelength 490 nm and emission wavelength 520 nm, using the LPB filter and a PMT voltage of 500 V. To analyse RAD51 nucleoprotein filaments assembled upon 100-base poly(dT) ssDNA, gels were stained post-run using SYBR^TM Gold Nucleic Acid Gel Stain (Invitrogen) and detected using a Typhoon^TM FLA 9500 (GE Healthcare).
A general note: Mobility shift assays separate free from complexed probe on a gel.

The test system of test [1] is DMC1 V179E-ssDNA filaments. As to the kind of experiment: EMSA, super-shift of filaments formed using DMC1 V179E. It counts as biochemical, human. How it is done: as §2
The next test deals with RAD51. The note with it: cited from earlier work. The source says: BRCA2 interacts with RAD51 and DMC1 recombinases through BRC repeats and PhePP motifs (Fig. 1a)[21],[25]–[28]. The eight BRC repeats, located within BRCA2’s central exon 11 region, bind to RAD51 and DMC1 with various affinities[25],[29],[30]. […] The first loop consists of amino-acids 147-GAGGYPG-153 in DMC1 and 148-IDRGGGE-154 in RAD51 (herein referred to as PhePP-binding loop A; Fig. 1d), and is one of the most divergent regions between DMC1 and RAD51 (Supplementary Fig. 4). The second loop consists of amino-acids 178-NVDHDA-183 in DMC1 and 179-GLSGSD-184 in RAD51 (herein referred to as PhePP-binding loop B; Fig. 1e), in which residues V179 (DMC1) and L180 (RAD51) substantially contribute to the PhePP-binding pocket. ...

The next test has as its system RAD51-ssDNA filaments. The note with it: ref [33],[34]; cited from earlier work. The source says:
BRCA2 interacts with RAD51 and DMC1 recombinases through BRC repeats and PhePP motifs (Fig. 1a)[21],[25]–[28]. The eight BRC repeats, located within BRCA2’s central exon 11 region, bind to RAD51 and DMC1 with various affinities[25],[29],[30].

“Also recorded” adds a separate entry of the source. No end group written: not given here.

For the substance “ATRNEKMRHLITTGRPTKVFVPPFKTKSHFHRVE [Ex14]”, the “selective binding to DMC1” value in the test with DMC1 is reported as “bind selectively to DMC1”. For the same substance, the results for the binding in pull-down entry in the test with DMC1 ΔN F85E and with DMC1 ΔN V179E were “failed to interact; also recorded: no interaction” and “failed to interact; also recorded: blocked its ability to bind Ex14”, respectively. In addition, in the test on DMC1-ssDNA filaments (Ex14 added after DMC1-ssDNA, with DMC1 prior to ssDNA, or with ssDNA prior to DMC1), the “stimulation of DMC1-ssDNA filament formation upon changing order of addition” value is reported as “same degree; also recorded: same stimulation; also recorded: order of addition did not affect”. The “stimulation of DMC1-ssDNA nucleoprotein filament formation” value in the test with DMC1-ssDNA filaments (100-nt random ssDNA, 4 °C, canonical ratio of three nucleotides to one protomer, equimolar for Ex14) is “stimulates DMC1-ssDNA nucleoprotein filament assembly, achieving complete DMC1-ssDNA filament formation; also recorded: promoted the formation of DMC1-ssDNA filaments”. Moreover, the “super-shift of DMC1 V179E-ssDNA filaments” value in test [1] is given as “The residual super-shift was the same; also recorded: only minimal super-shift”.

For “Ex27: BRCA2 exon 27 PhePP peptide, amino acids 3270-3315 (ALDFLSRLPLPPPVSPICTFVSPAAQKAFQPPRSCGTKYETPIKKK; UniProt P51587 3270-3315, looked up, fragment)”, the “selective binding to RAD51” value with RAD51 (ref [21],[27],[32]) is “bind selectively to DMC1 and RAD51, respectively”. The “binding to RAD51 filaments versus monomers” value in the test with RAD51 (ref [33],[34]) was “binds to RAD51 filaments, rather than monomers”. Also, in the test with RAD51-ssDNA filaments, the “protection of nucleoprotein filaments from BRC-mediated disruption” value was “protects nucleoprotein filaments from BRC-mediated disruption”.
